Key:
[1] = tested on: bacterial flora of prerigor beef; experiment: Working Example #4: total plate count on prerigor beef, high pressure spray, comparison to Lactic Acid; assay type: cell-based; settings: ~0.5% Lactic Acid, ~230 psi, 30 sec spray, 10-minute exposure
Description: The objective of the testing was to determine the efficacy of Test Formula #1 at approximately 50, 100 and 200 ppm total peracid with a high pressure application spray at elevated temperatures in comparison to Lactic Acid against the bacterial flora of prerigor beef. Prerigor beef samples were obtained and kept in a cooler at ambient temperature until time of testing. Four different test treatments were utilized with four replicates per treatment. Two cores (4.3 cm diameter) were taken as each replicate from one piece for both before- and after-treatment samples and combined into 99 mL of Letheen Broth. The cores/neutralizer mixtures were stomached for 1 minute and then serially diluted and plated using pour plate technique. Test Product: Test Formula #1 at 50, 100 and 200 ppm total peracid • Lactic Acid (88% concentrate) • (Batch # Si120972, was titrated at 4.76% total peracid) Application: Eight cores (2 cores per replicate) were aseptically removed from each sample before treatment. These were used for the before-treatment samples. The remaining sample was placed onto a clean and sanitary screen. The sample was then sprayed with Test Formula #1 at approximately 50, 100 or 200 ppm total peracid utilizing a 20- or 30-second spray application time. 0.5% Lactic Acid utilized only the 30-second spray application. […]

[2] = tested on: Listeria innocua ATCC 33090; experiment: Working Example #5: inoculated prerigor beef, high-pressure spray; assay type: cell-based; settings: ˜0.5%-0.75% Lactic Acid; ~220 psi, 30 second spray, ˜120° F., 10 minutes exposure
Method: The objective of the testing was to determine the efficacy of Test Formula #1 and Lactic Acid against Listeria innocua ATCC 33090 with a high-pressure application spray at elevated temperatures. Prerigor beef samples were obtained and kept in a cooler at ambient temperature until time of testing. Samples were cut into 13 cm pieces and 2.0 mL of the inoculum (see Test System Preparation below) was spread evenly over the entire surface of the sample. Inoculated samples were then left at room temperature (˜23° C.) for ≧15 minutes. Four replicate samples were taken (two cores per replicate) before treatment. After each spray treatment, a 10-minute exposure time was utilized, and taken four replicate samples were taken (two cores per replicate) and stomached for 1 minute, serially diluted and plated using pour plate technique. Treatments: • 1. Test Formula #1 at 200 ppm total peracid with […], 30 second spray time. • 2. Test Formula #1 at 200 ppm total peracid with ˜150 psi pressure spray, 30 second spray time. • 3. Test Formula #1 at 200 ppm total peracid with ˜100 psi pressure spray, 30 second spray time. • 4. Water Control with ˜220 psi pressure spray, 30-second spray time. • 5. ˜0.5%-0.75% Lactic Acid with ˜220 psi pressure spray, 30-second spray time. • 6. Test Formula #1 at 100 ppm total peracid with ˜220 psi pressure spray, 30 second spray time. • 7. […]

[3] = tested on: bacterial flora present on prerigor beef samples; experiment: Working Example #1: total plate count on prerigor beef after spray, with or without steam; assay type: cell-based
Method: The objective of working example #1 was to determine if 0.5% and 1.0% lactic acid alone and in combination with Test Formula #1 and/or steam achieved a reduction in the bacterial flora present on prerigor beef samples. An exposure time of 10 minutes was utilized for all applications and testing was performed at 33° C. Sixteen prerigor beef samples were obtained and kept in a cooler until time of testing. Samples were aseptically divided in half. Eight different test treatments were utilized with four replicate pieces per treatment with the exception of the steam +0.5% lactic acid treatment which only had three replicate pieces. Two cores (4.3 cm diameter) were taken from each replicate piece before and after treatment, combined into 99 mL of Phosphate Buffered Dilution water, stomached for 1 minutes and then serially diluted and plated using pour plate technique. Test Products: • 1. Test Formula #1 at 200 ppm Total […] • 2. Test Formula #1 at 200 ppm Total […]+0.5% Lactic Acid • 3. Test Formula #1 at 200 ppm Total […]+1.0% Lactic Acid • 4. 0.5% Lactic Acid • 5. Steam Alone, followed by a sterile water rinse • 6. Steam+Test Formula #1 at 200 ppm Total […], followed by a sterile water rinse • 7. Steam+Test Formula #1 at 200 ppm Total […]+0.5% Lactic Acid, followed by a sterile water rinse • 8. Steam+0.5% Lactic Acid followed by a sterile water rinse Product Application: All product use solutions were applied by a spray application for 10 seconds. This delivered approximately 150 mL of product. An exposure time of 10 minutes was utilized, followed by a 10 second sterile water rinse, if applicable. Neutralizer: 99 mL of Phosphate Buffered Dilution Water Dilutions Plated: 10^0, 10^-1, 10^-2 for Total Plate Count Before • 10^0, 10^-1 for Total Plate Count After Plating Medium: Tryptone Glucose Extract Agar Incubation: 26° C. for 72 hours [table]

[4] = tested on: bacterial flora of prerigor beef; experiment: Working Example #2: total plate count on prerigor beef, extended spray and exposure times; assay type: cell-based; settings: 0.5% Lactic Acid, 25 psi, 10 sec spray, 10-minute exposure
Description: The objective of the testing was to determine the efficacy of various antimicrobial treatments with extended spray and exposure times against the bacterial flora of prerigor beef. Prerigor beef samples were obtained and kept in a cooler at ambient temperature until time of testing. Ten different test treatments were utilized with four replicates per treatment. Two cores (4.3 cm diameter) were taken as each replicate from one piece for both before- and after-treatment samples and combined into 99 mL of Letheen Broth. The cores/neutralizer mixtures were stomached for 1 minute and then serially diluted and plated using pour plate technique. Test Products: • Test Formula #1* at 200 ppm […]=0.42% (4.2 mL were added to 995.8 mL tap water) • Test Formula #1* at 500 ppm […] (10.5 mL were added to 989.5 mL tap water) • 0.5% Lactic Acid • *Test Formula #1, batch # Si120972, was titrated at 4.76% total peracid. Application: Eight cores (2 cores per replicate) were placed onto a clean and sanitary screen. The cores were sprayed with the appropriate test product utilizing a 10- or 30-second spray application time. For each replicate, two cores were removed after a 10-minute exposure time and placed into a stomacher bag containing 99 mL of neutralizer. Neutralizer: 99 mL Letheen Broth Dilutions: 10^0, 10^-1, 10^-2 for Total Plate Count Before • 10^0, 10^-1 for Total Plate Count After Plating Medium: Tryptone Glucose Extract Agar Incubation: 26° C. for 72 hours Calculations: Average CFU/plate=(All eight counts from four replicates/4) • Average CFU/plate×100=Average CFU/100 mL=Y [formula] • Dilution=10, 100, or 1000 • r=2.15 cm • 2=# of cores

[5] = cited from earlier work

Compound	Avg. Log10 Reduc. [1]	Avg. CFU/100 mL After ([1]; Before 8.7 × 10^5)	Avg. CFU/100 mL After [2]	Avg. Log10 Reduc. [2]	Avg. Log10 Reduc. ([3]; 0.5% Lactic Acid, 10 s spray, 10 min exposure, 33° C.)	Avg. CFU/100 mL After ([3]; 0.5% Lactic Acid, 10 s spray, 10 min exposure, 33° C., Before 2.7 × 10^4)	Avg. Log10 Reduc. ([3]; Steam + 0.5% Lactic Acid, with sterile water rinse)	Avg. CFU/100 mL After ([3]; Steam + 0.5% Lactic Acid, with sterile water rinse, Before 2.5 × 10^4)	Avg. Log10 Reduc. ([4]; 98° F.)	Avg. CFU/100 mL After ([4]; 98° F., Before 1.6 × 10^4)	Avg. Log10 Reduc. ([4]; 120° F.)	Avg. CFU/100 mL After ([4]; 120° F., Before 1.0 × 10^5)	solubility [5]
CC(O)C(=O)O (stereo not shown) [Lactic Acid, 2-hydroxypropionic acid]	1.58 Log10	2.3 × 10^4 CFU/100 mL	3.5 × 10^5 CFU/100 mL	1.63 Log10	0.91 Log10	5.4 × 10^3 CFU/100 mL	1.69 Log10	9.3 × 10^2 CFU/100 mL	−0.01 Log10	1.5 × 10^4 CFU/100 mL	0.07 Log10	8.4 × 10^4 CFU/100 mL	
peroxyacetic acid													freely soluble in water, alcohol, ether, and sulfuric acid

From patent US9770040B2, “Treatment of animal carcasses” (Ecolab USA Inc., priority 1998, dated 2017)
